In PubChem BioAssay AID2060502 (Molecular Pharmacology Branch, DTP, NCI, 2025):

System: 885724-159-R-J1-PDC complex spheroid viability
Assay: Anticancer human tumor 885724-159-R-J1-PDC patient-derived pancreatic adenocarcinoma cell line growth inhibition [GQUAD]
Settings: for IC50: curve of first compound; for viability, T/C: stronger effect = lower value
In short: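 Multi-cell-type spheroids of tumor cells with HUVEC and mesenchymal stem cells, treated with drug combinations. Concentrations descend in half-log steps from near clinical Cmax, or from 10 microM where Cmax is unknown; viability read-out.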

[1] = second compound 0.0316 µM, first compound 0.0316 µM
[2] = second compound 0.0316 µM, first compound 0.1 µM
[3] = second compound 0.0316 µM, first compound 0.316 µM
[4] = second compound 0.0316 µM, first compound 1 µM
[5] = second compound 0.0316 µM, first compound 3.16 µM
[6] = second compound 0.0316 µM, first compound 10 µM
[7] = second compound 0.1 µM, first compound 0.0316 µM
[8] = second compound 0.1 µM, first compound 0.1 µM
[9] = second compound 0.1 µM, first compound 0.316 µM
[10] = second compound 0.1 µM, first compound 1 µM
[11] = second compound 0.1 µM, first compound 3.16 µM
[12] = second compound 0.1 µM, first compound 10 µM
[13] = second compound 0.316 µM, first compound 0.0316 µM
[14] = second compound 0.316 µM, first compound 0.1 µM
[15] = second compound 0.316 µM, first compound 0.316 µM
[16] = second compound 0.316 µM, first compound 1 µM
[17] = second compound 0.316 µM, first compound 3.16 µM
[18] = second compound 0.316 µM, first compound 10 µM
[19] = second compound 1 µM, first compound 0.0316 µM
[20] = second compound 1 µM, first compound 0.1 µM
[21] = second compound 1 µM, first compound 0.316 µM
[22] = second compound 1 µM, first compound 1 µM
[23] = second compound 1 µM, first compound 3.16 µM
[24] = second compound 1 µM, first compound 10 µM
[25] = second compound 3.16 µM, first compound 0.0316 µM
[26] = second compound 3.16 µM, first compound 0.1 µM
[27] = second compound 3.16 µM, first compound 0.316 µM
[28] = second compound 3.16 µM, first compound 1 µM
[29] = second compound 3.16 µM, first compound 3.16 µM
[30] = second compound 3.16 µM, first compound 10 µM
[31] = second compound 10 µM, first compound 0.0316 µM
[32] = second compound 10 µM, first compound 0.1 µM
[33] = second compound 10 µM, first compound 0.316 µM
[34] = second compound 10 µM, first compound 1 µM
[35] = second compound 10 µM, first compound 3.16 µM
[36] = second compound 10 µM, first compound 10 µM
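Note: spheroids exposed to agents for seven days before readout.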
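Throughout, for viability, T/C: percent of vehicle control viability where 100% = DMSO wells.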

## CCCS(=O)(=O)Nc1ccc(F)c(C(=O)c2c[nH]c3ncc(-c4ccc(Cl)cc4)cc23)c1F + Cc1[nH]c2ccc(F)cc2c1-c1nc2c3cccnc3c3ncccc3c2[nH]1
Second compound 0.0316 µM
  IC50: > 10000 nM
Second compound 0.1 µM
  IC50: > 10000 nM
Second compound 0.316 µM
  IC50: > 10000 nM
Second compound 1 µM
  IC50: 7430 nM
Second compound 3.16 µM
  IC50: < 31.6 nM
Second compound 10 µM
  IC50: 8370 nM
[1]
  viability, T/C: 98.7%
[2]
  viability, T/C: 106%
[3]
  viability, T/C: 112%
[4]
  viability, T/C: 130%
[5]
  viability, T/C: 123%
[6]
  viability, T/C: 65.2%
[7]
  viability, T/C: 110%
[8]
  viability, T/C: 106%
[9]
  viability, T/C: 116%
[10]
  viability, T/C: 124%
[11]
  viability, T/C: 125%
[12]
  viability, T/C: 65.6%
[13]
  viability, T/C: 97.6%
[14]
  viability, T/C: 89.8%
[15]
  viability, T/C: 90%
[16]
  viability, T/C: 107%
[17]
  viability, T/C: 130%
[18]
  viability, T/C: 59.8%
[19]
  viability, T/C: 71.8%
[20]
  viability, T/C: 60.4%
[21]
  viability, T/C: 88.2%
[22]
  viability, T/C: 90.8%
[23]
  viability, T/C: 102%
[24]
  viability, T/C: 38.7%
[25]
  viability, T/C: 17%
[26]
  viability, T/C: 17.7%
[27]
  viability, T/C: 14.4%
[28]
  viability, T/C: 18.3%
[29]
  viability, T/C: 13.9%
[30]
  viability, T/C: 4.94%
[31]
  viability, T/C: 65.9%
[32]
  viability, T/C: 73.4%
[33]
  viability, T/C: 77.7%
[34]
  viability, T/C: 93.8%
[35]
  viability, T/C: 110%
[36]
  viability, T/C: 43.6%

## COc1ncnc(C2CC2)c1-c1ncc2cnn(Cc3ccc(-c4nc(C(F)(F)F)cn4C(C)C)cc3)c2n1 + Cc1[nH]c2ccc(F)cc2c1-c1nc2c3cccnc3c3ncccc3c2[nH]1
Second compound 0.0316 µM
  IC50: > 10000 nM
Second compound 0.1 µM
  IC50: > 10000 nM
Second compound 0.316 µM
  IC50: > 10000 nM
Second compound 1 µM
  IC50: > 10000 nM
Second compound 3.16 µM
  IC50: < 31.6 nM
Second compound 10 µM
  IC50: > 10000 nM
[1]
  viability, T/C: 85.5%
[2]
  viability, T/C: 91.4%
[3]
  viability, T/C: 93.7%
[4]
  viability, T/C: 81.8%
[5]
  viability, T/C: 89.9%
[6]
  viability, T/C: 94%
[7]
  viability, T/C: 101%
[8]
  viability, T/C: 90%
[9]
  viability, T/C: 86.3%
[10]
  viability, T/C: 90.4%
[11]
  viability, T/C: 91.3%
[12]
  viability, T/C: 111%
[13]
  viability, T/C: 96.7%
[14]
  viability, T/C: 81.5%
[15]
  viability, T/C: 76.1%
[16]
  viability, T/C: 72.3%
[17]
  viability, T/C: 88%
[18]
  viability, T/C: 82.3%
[19]
  viability, T/C: 70.3%
[20]
  viability, T/C: 65.8%
[21]
  viability, T/C: 62.8%
[22]
  viability, T/C: 56.3%
[23]
  viability, T/C: 70.5%
[24]
  viability, T/C: 67.8%
[25]
  viability, T/C: 23.7%
[26]
  viability, T/C: 12.7%
[27]
  viability, T/C: 10.7%
[28]
  viability, T/C: 8.78%
[29]
  viability, T/C: 11.8%
[30]
  viability, T/C: 12.8%
[31]
  viability, T/C: 69.6%
[32]
  viability, T/C: 66%
[33]
  viability, T/C: 63.7%
[34]
  viability, T/C: 72.1%
[35]
  viability, T/C: 69.3%
[36]
  viability, T/C: 68.3%

## Cc1[nH]c2ccccc2c1CCNCc1ccc(/C=C/C(=O)NO)cc1 + Cc1[nH]c2ccc(F)cc2c1-c1nc2c3cccnc3c3ncccc3c2[nH]1
Second compound 0.0316 µM
  IC50: 271 nM
Second compound 0.1 µM
  IC50: 305 nM
Second compound 0.316 µM
  IC50: 281 nM
Second compound 1 µM
  IC50: 213 nM
Second compound 3.16 µM
  IC50: < 0.999 nM
Second compound 10 µM
  IC50: 226 nM
Second compound 0.0316 µM, first compound 0.000999 µM
  viability, T/C: 87%
Second compound 0.0316 µM, first compound 0.00316 µM
  viability, T/C: 99%
Second compound 0.0316 µM, first compound 0.00999 µM
  viability, T/C: 93.4%
[1]
  viability, T/C: 98.2%
Second compound 0.0316 µM, first compound 0.0999 µM
  viability, T/C: 106%
[3]
  viability, T/C: 42.8%
Second compound 0.1 µM, first compound 0.000999 µM
  viability, T/C: 95.9%
Second compound 0.1 µM, first compound 0.00316 µM
  viability, T/C: 90.3%
Second compound 0.1 µM, first compound 0.00999 µM
  viability, T/C: 87.8%
[7]
  viability, T/C: 95%
Second compound 0.1 µM, first compound 0.0999 µM
  viability, T/C: 99.6%
[9]
  viability, T/C: 48.5%
Second compound 0.316 µM, first compound 0.000999 µM
  viability, T/C: 101%
Second compound 0.316 µM, first compound 0.00316 µM
  viability, T/C: 77.9%
Second compound 0.316 µM, first compound 0.00999 µM
  viability, T/C: 83.1%
[13]
  viability, T/C: 81.2%
Second compound 0.316 µM, first compound 0.0999 µM
  viability, T/C: 78.9%
[15]
  viability, T/C: 46.4%
Second compound 1 µM, first compound 0.000999 µM
  viability, T/C: 75.5%
Second compound 1 µM, first compound 0.00316 µM
  viability, T/C: 60.8%
Second compound 1 µM, first compound 0.00999 µM
  viability, T/C: 66.4%
[19]
  viability, T/C: 57.8%
Second compound 1 µM, first compound 0.0999 µM
  viability, T/C: 82.2%
[21]
  viability, T/C: 40.3%
Second compound 3.16 µM, first compound 0.000999 µM
  viability, T/C: 18.1%
Second compound 3.16 µM, first compound 0.00316 µM
  viability, T/C: 13.1%
Second compound 3.16 µM, first compound 0.00999 µM
  viability, T/C: 19.2%
[25]
  viability, T/C: 11.5%
Second compound 3.16 µM, first compound 0.0999 µM
  viability, T/C: 21.2%
[27]
  viability, T/C: 31.6%
Second compound 10 µM, first compound 0.000999 µM
  viability, T/C: 68.1%
Second compound 10 µM, first compound 0.00316 µM
  viability, T/C: 75.2%
Second compound 10 µM, first compound 0.00999 µM
  viability, T/C: 64%
[31]
  viability, T/C: 69.7%
Second compound 10 µM, first compound 0.0999 µM
  viability, T/C: 81.6%
[33]
  viability, T/C: 41.2%

## O=C(NO)c1cnc(N2CCN(S(=O)(=O)c3ccc4ccccc4c3)CC2)nc1 + Cc1[nH]c2ccc(F)cc2c1-c1nc2c3cccnc3c3ncccc3c2[nH]1
Second compound 0.0316 µM
  IC50: 862 nM
Second compound 0.1 µM
  IC50: 841 nM
Second compound 0.316 µM
  IC50: 894 nM
Second compound 1 µM
  IC50: 706 nM
Second compound 3.16 µM
  IC50: < 31.6 nM
Second compound 10 µM
  IC50: 802 nM
[1]
  viability, T/C: 101%
[2]
  viability, T/C: 96.9%
[3]
  viability, T/C: 108%
[4]
  viability, T/C: 42.3%
[5]
  viability, T/C: 2.03%
[6]
  viability, T/C: 0.22%
[7]
  viability, T/C: 101%
[8]
  viability, T/C: 106%
[9]
  viability, T/C: 82%
[10]
  viability, T/C: 47.1%
[11]
  viability, T/C: 2.38%
[12]
  viability, T/C: 0.21%
[13]
  viability, T/C: 90.7%
[14]
  viability, T/C: 83%
[15]
  viability, T/C: 95.6%
[16]
  viability, T/C: 45.7%
[17]
  viability, T/C: 3.31%
[18]
  viability, T/C: 0.18%
[19]
  viability, T/C: 69.2%
[20]
  viability, T/C: 55.7%
[21]
  viability, T/C: 94.9%
[22]
  viability, T/C: 39.9%
[23]
  viability, T/C: 2.39%
[24]
  viability, T/C: 0.24%
[25]
  viability, T/C: 14.8%
[26]
  viability, T/C: 18.3%
[27]
  viability, T/C: 31.6%
[28]
  viability, T/C: 22.1%
[29]
  viability, T/C: 1.99%
[30]
  viability, T/C: 0.22%
[31]
  viability, T/C: 66.2%
[32]
  viability, T/C: 65.6%
[33]
  viability, T/C: 74.6%
[34]
  viability, T/C: 45.5%
[35]
  viability, T/C: 3.66%
[36]
  viability, T/C: 0.26%
